Assay results taken from patent US10774084B2, “Adenine derivatives and their use as UV-photoprotective agents” (UNIVERZITA PALACKEHO V OLOMOUCI, priority 2015, dated 2020).

Test system: human dermal fibroblast (HDF)
Assay: Comparative gene expression analysis (mRNA sequencing)
Type: cell-based
Settings: 5 μM, 24 h
Procedure: Comparative gene expression analysis in human dermal fibroblast (HDF) was performed to gain insight into role of compound 1 in the photoprotection against UV-induced damage. Three independent HDF lines form three patients were treated with 5 μM 1 for 24 h or mock-treated with DMSO. Alternatively, the above three biological samples (without 1) were irradiated with UV light (5 J/cm2). 1.5-3.0×10^6 cells from each treatment or control was used for isolation of total RNA using trizol. cDNA sequencing libraries were prepared with the Illumina TruSeq Stranded mRNA LT Sample Prep Kit (Illumina, San Diego, Calif.) according to standard Illumina's protocols and sequenced on HiSeq 2500 apparatus (50 bp single-end reads).
To reveal the molecular mechanism of the action of 1, we compared data from mock (DMSO)-treated HDF or UV-treated HDF with those obtained after 24 h treatment with 1. For data analysis, we performed ab initio method where sequencing reads were mapped to the reference genome. […] These included calcium-activated potassium channel KCNN4, calcium sensor DYSF or calcium-dependent phospholipid-binding protein CPNE7. […] Thus, 1 seems to protect cells against oxidative damage caused primarily by UV-light or other stress conditions.

[1] = 1-treated vs UV-treated group, P<0.05

## c1nc(NCC2CCCO2)c2ncn(C3CCCO3)c2n1 (centres unmarked) [Compound 1, 6-(tetrahydrofuran-2-ylmethylamino)-9-(tetrahydrofuran-2-yl)purine]
[1]
  number of differentially regulated genes: 1306 genes
  number of downregulated genes: 441 genes
  number of upregulated genes: 865 genes
Vs DMSO mock
  significantly regulated genes, control group vs samples treated with 1 (in words): did not show any significantly regulated genes
Vs UV-treated group
  logFC ABCG1: −2.63
  logFC AC002456.2: 1.58
  logFC AC003986.6: −1.65
  logFC ADAMTS9-AS2: −1.63
  logFC ADGRG1: 1.52
  logFC ANGPTL4: 1.73
  logFC ANKRD33: 2.69
  logFC APOL6: −1.51
  logFC ARHGAP22: 1.66
  logFC B4GALNT1: 1.55
  logFC BHLHE22: −1.90
  logFC BRINP2: −1.77
  logFC BTC: −1.84
  logFC CCDC107: 1.50
  logFC CCL8: −2.80
  logFC CCL26: 1.75
  logFC CD163: 1.67
  logFC CFB: −1.96
  logFC CHRNA9: 2.21
  logFC CITED4: 1.63
  logFC CLNS1AP1: −1.80
  logFC CPNE7: 1.61
  logFC CTD-2587H24.5: 1.54
  logFC CXCL9: −1.79
  logFC CYP51A1: 1.65
  logFC DHRS3: −1.60
  logFC DYSF: 1.73
  logFC EBF2: 1.62
  logFC FAM20A: −1.86
  logFC FAM81A: 1.71
  logFC FGD3: −1.93
  logFC FOLR3: 1.68
  logFC GBP2: −1.61
  logFC GPR37L1: −1.66
  logFC HAUS1P2: −1.54
  logFC HCK: −1.66
  logFC HS3ST2: 2.50
  logFC IFIT2: −1.77
  logFC ITGA10: 1.77
  logFC JAK3: −1.68
  logFC KCNN4: 1.85
  logFC KCNT2: −2.21
  logFC KIF1A: 3.05
  logFC LINC00702: 1.60
  logFC LINC00704: 1.69
  logFC LINC01204: 1.64
  logFC MET: 1.63
  logFC MOB3B: −1.70
  logFC MYEOV: 1.98
  logFC NRROS: 1.74
  logFC NUDT8: 1.56
  logFC PPP2R2C: 1.95
  logFC PSAT1P3: −2.19
  logFC RARRES3: −2.09
  logFC RNF150: −1.80
  logFC RORB: −1.57
  logFC RP1-181J22.1: −2.53
  logFC RP11-21C4.1: −1.95
  logFC RP11-54A9.1: 1.63
  logFC RP11-184E9.1: 1.78
  logFC RP11-363H12.1: −1.58
  logFC RP11-367F23.2: 1.70
  logFC RP11-379B8.1: −1.72
  logFC RP11-383F6.1: −1.50
  logFC RP11-400K9.4: −1.51
  logFC RP11-541M12.6: 1.70
  logFC RP11-1100L3.8: −1.70
  logFC RPL34P31: −1.89
  logFC SCG2: 2.00
  logFC SERPINB9: −1.59
  logFC SLC20A1: 1.56
  logFC STX1A: 1.55
  logFC TGM2: 1.58
  logFC TLR2: −1.63
  logFC TM4SF1: 2.08
  logFC TMEM154: 1.57
  logFC TMEM178A: −1.52
  logFC TMEM233: 2.12
  logFC TNFRSF9: −1.68
  logFC TNFSF10: −2.14
  logFC TNFSF13B: −1.61
  logFC TP63: −1.61
